Measured values taken from US20110294736A1, “COMPOUNDS AND METHODS FOR THE TREATMENT OF AUTOIMMUNE AND INFLAMMATORY DISEASE” (THE PROVOST, FELLOWS AND SCHOLARS OF THE HOLY AND UNDIVIDED …, priority 2008, published 2011).

Test system: BMDC
Test: IL-12p40, IL-23, IL-12p70 and IL-10 ELISA in BMDC with p38 or ERK inhibitor, Tri-DAP and LPS or CpG
Assay type: cell-based, murine
Conditions: ERK inhibitor 5 μM 30 minutes before Tri-DAP 100 μg/ml
Experimental: BMDC (1×10^6) were pretreated with the p38 inhibitor, SB203580 (5 μM—FIGS. 10-11), or the ERK inhibitor UO126 (5 μM—FIGS. 12-13) for 30 minutes prior to stimulation with Tri-DAP (100 μg/ml) or medium alone. After 2 hours the cells were then stimulated with LPS (100 ng/ml—FIGS. 10 and 12), with the TLR agonist CpG (5 μg/ml—FIGS. 11 and 13) or with medium alone. Supernatants were collected after 24 hours and IL-12p40, IL-23, IL-12p70 and IL-10 concentrations were quantified by ELISA.

In the case of `N#CC(=C(/N)Sc1ccccc1N)/C(C#N)=C(\N)Sc1ccccc1N` [U0126, reference compound], the “enhancement of LPS induced IL-12p70 by Tri-DAP” value (LPS 100 ng/ml) is reported as “only marginally affected”, the “enhancement of LPS induced IL-23 production by Tri-DAP” value (LPS 100 ng/ml) is reported as “suppressed” and the “IL-10 production by Tri-DAP with LPS or with CpG” value (LPS 100 ng/ml or CpG 5 μg/ml) is reported as “suppressed”.
